The experiment deals with T1, Glucocorticoid Receptor (GR), CHO-GRE-Luc #35 cells (Cricetulus griseus, UniProt A0A9J7F8I2).
T1 sequence (A0A9J7F8I2 1-774): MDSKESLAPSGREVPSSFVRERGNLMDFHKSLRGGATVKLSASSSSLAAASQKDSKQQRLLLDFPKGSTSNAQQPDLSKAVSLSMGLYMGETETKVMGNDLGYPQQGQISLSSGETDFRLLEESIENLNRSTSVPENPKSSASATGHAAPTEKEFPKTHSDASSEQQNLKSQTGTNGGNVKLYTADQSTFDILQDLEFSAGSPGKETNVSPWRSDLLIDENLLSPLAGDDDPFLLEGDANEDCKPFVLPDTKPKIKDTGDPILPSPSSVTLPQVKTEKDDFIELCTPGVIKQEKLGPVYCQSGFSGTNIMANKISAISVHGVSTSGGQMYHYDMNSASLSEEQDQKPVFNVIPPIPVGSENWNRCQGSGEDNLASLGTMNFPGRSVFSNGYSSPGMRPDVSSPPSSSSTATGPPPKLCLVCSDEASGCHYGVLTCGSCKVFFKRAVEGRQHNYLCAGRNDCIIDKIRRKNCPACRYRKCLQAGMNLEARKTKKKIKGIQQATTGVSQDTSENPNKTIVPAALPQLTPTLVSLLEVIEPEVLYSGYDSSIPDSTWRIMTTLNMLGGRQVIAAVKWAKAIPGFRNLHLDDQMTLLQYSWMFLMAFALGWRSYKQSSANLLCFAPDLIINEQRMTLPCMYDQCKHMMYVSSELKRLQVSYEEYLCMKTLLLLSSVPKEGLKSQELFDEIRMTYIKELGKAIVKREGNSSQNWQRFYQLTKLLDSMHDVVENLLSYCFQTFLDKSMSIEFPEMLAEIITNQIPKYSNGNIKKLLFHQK
The experiment is described as follows: Glucocorticoid receptor function test using transgenic-recombinant cell (GRE-luciferase). It counts as cell-based. How it is done:
Glucocorticoid Receptor Function Test Using Transgenic-Recombinant Cell
Transgenic-recombinant cell was prepared by our company (Yokohama, JP). In Hokkaido System Science Co., Ltd., a cis-element wherein two glucocorticoid responsive elements (GRE) present in the […] promoter region of mouse were connected in tandem was produced on order from synthetic DNA. The gene was incorporated into a plasmid vector having a gene encoding luciferase enzyme. The plasmid was incorporated into CHO-K1 cell to give a transfectant. The expression cell (CHO-GRE-Luc #35) produces luciferase instead of the object protein under regulation of a transcription region involved in the expression of the object protein. That is, using the cell, a substance that controls production of the object protein can be screened for by replacing the substance with the luciferase activity. Fetal Bovine Serum (FBS), L-glutamine, penicillin-streptomycin solution, PBS(−), trypsin-EDTA solution, Opti-MEM medium and G418 were obtained from GIBCO (Auckland, N.Z.). A 10 cm dish and DMEM:HAM′S F12 medium were obtained from IWAKI (Chiba, JP). A 96 well white plate was obtained from Corning (Corning, N.Y.). Bright-Glo was obtained from Promega (Madison, US). Dexamethasone was obtained from Sigma Chemicals (St. Louis, Mo.).
CHO-GRE-Luc #35 cells were cultured for several days in a 10 cm dish in a medium (10% FBS/DMEM:HAM'S F12/2.5 mM L-glutamine/50 U/mL penicillin/25 μg/mL streptomycin/500 μg/mL G418). Sub-confluent cells were washed with a suitable amount of PBS(−), 1 ml of Trypsin-EDTA was added and the cells were stood still in a CO2 incubator at 37° C. for 3 min. A 10-fold amount of Opti-MEM medium was added to give a suspension, which was placed in a centrifugal tube and centrifuged (25° C., 1,000 rpm, 5 min). The supernatant was removed, and the cells were suspended in 5 ml of Opti-MEM medium and counted.
Storage solutions (5-20 mM) of the compound were prepared with DMSO. The storage solutions were diluted with DMSO to 1 mM, and further diluted 100-fold with distilled water or Opti-MEM medium to give solutions. The preparations were diluted with 1% DMSO solution to each concentration. As GR agonist, 10 nM dexamethasone was used. 0.2% DMSO was present at the time of the function assay.
The prepared compound solutions (evaluation compound solution or 1% DMSO solution 10 μL+dexamethasone or 1% DMSO solution 10 μL) were added to the plate. After the addition, the place was stood still in a CO2 incubator at 37° C. for about 6 hr. After the reaction, Bright-Glo was added at 20 μL/well, and the mixture was gently shaken and measured by a microplate luminometer (Turner Designs Instrument).
The IC50 value (nM) of the evaluation compound against GR stimulation with dexamethasone was calculated using Prism 3.0 as an analysis software and assuming one-site competition.

[1] abbreviates: against GR stimulation with 10 nM dexamethasone, luciferase, about 6 hr, read-out: GR (IC50: nM).

Where two headings read alike, the source gives them in different places.

For `Cc1noc(C)c1-c1cc2c(c3c1CCC3)NC(C)(C)C(=O)C2(C)C` [Example 2, 6-(3,5-dimethylisoxazol-4-yl)-2,2,4,4-tetramethyl-2,3,4,7,8,9-hexahydro-1H-cyclopenta[h]quinolin-3-one], under setting [1], the IC50 was found to be 30 nM.

As for `Cc1nnn(C)c1-c1cc2c(c3c1CCC3)NC(C)(C)C(=O)C2(C)C` [Example 4, 6-(3,5-dimethyl-3H-[1,2,3]triazol-4-yl)-2,2,4,4-tetramethyl-2,3,4,7,8,9-hexahydro-1H-cyclopenta[h]quinolin-3-one], the IC50 under setting [1] was found to be 86 nM.

Turning to `CC1(C)Nc2c(cc(-c3ccnc4cc[nH]c34)c3c2CCC3)C(C)(C)C1=O` [Example 13, 2,2,4,4-tetramethyl-6-(1H-pyrrolo[3,2-b]pyridin-7-yl)-2,3,4,7,8,9-hexahydro-1H-cyclopenta[h]quinolin-3-one], the IC50 under setting [1] stood at 31 nM.

With `CC1(C)Nc2c(cc(-c3cccc4nccn34)c3c2CCC3)C(C)(C)C1=O` [Example 14, 6-(imidazo[1,2-a]pyridin-5-yl)-2,2,4,4-tetramethyl-2,3,4,7,8,9-hexahydro-1H-cyclopenta[h]quinolin-3-one], the concentration for half-maximal inhibition (IC50) under setting [1] was determined as 21 nM.

With `CC1(C)Nc2c(cc(-c3cccc4nncn34)c3c2CCC3)C(C)(C)C1=O` [Example 17, 2,2,4,4-tetramethyl-6-([1,2,4]triazolo[4,3-a]pyridin-5-yl)-2,3,4,7,8,9-hexahydro-1H-cyclopenta[h]quinolin-3-one], the concentration for half-maximal inhibition (IC50) turned out to be 91 nM.

On to `CC1(C)Nc2c(cc(-c3cccc4ncccc34)c3c2CCC3)C(C)(C)C1=O` [Example 20, 2,2,4,4-tetramethyl-6-(quinolin-5-yl)-2,3,4,7,8,9-hexahydro-1H-cyclopenta[h]quinolin-3-one], for which the half-inhibitory concentration (IC50) under setting [1] was found to be 74 nM.

`CC1(C)Nc2c(cc(-c3ccnc4ncccc34)c3c2CCC3)C(C)(C)C1=O` [Example 21, 2,2,4,4-tetramethyl-6-([1,8]naphthyridin-4-yl)-2,3,4,7,8,9-hexahydro-1H-cyclopenta[h]quinolin-3-one]: the half-maximal inhibitory concentration (IC50) under setting [1] was found to be 53 nM.

Take `C=C1C(C)(C)Nc2c(cc(-c3c(C)ncn3C)c3c2CCC3)C1(C)C` [Example 29, 6-(3,5-dimethyl-3H-imidazol-4-yl)-2,2,4,4-tetramethyl-3-methylene-2,3,4,7,8,9-hexahydro-1H-cyclopenta[h]quinoline]: under setting [1], the IC50 was determined as 69 nM.

In the case of `C=CCC1(C)C(=O)C(C)(C)Nc2c1cc(-c1ccc(O)cc1C)c1c2CCC1` (stereo not drawn) [Example 50, 4-allyl-6-(4-hydroxy-2-methylphenyl)-2,2,4-trimethyl-2,3,4,7,8,9-hexahydro-1H-cyclopenta[h]quinolin-3-one], the IC50 under setting [1] came out at 61 nM.

On to `C=CCC1(C)C(=O)C(C)(C)Nc2c1cc(-c1c(C)noc1C)c1c2CCC1` (stereo not drawn) [Example 51, 4-allyl-6-(3,5-dimethylisoxazol-4-yl)-2,2,4-trimethyl-2,3,4,7,8,9-hexahydro-1H-cyclopenta[h]quinolin-3-one], for which, under setting [1], the half-inhibitory concentration (IC50) turned out to be 33 nM.

As for `C=CCC1(C)C(=O)C(C)(C)Nc2c1cc(-c1cccc3nccn13)c1c2CCC1` (stereo not drawn) [Example 57, 4-allyl-6-(imidazo[1,2-a]pyridin-5-yl)-2,2,4-trimethyl-2,3,4,7,8,9-hexahydro-1H-cyclopenta[h]quinolin-3-one], the IC50 under setting [1] was 69 nM.

For `CCC1(C)C(=O)C(C)(C)Nc2c1cc(-c1cccc3nccn13)c1c2CCC1` (stereo not drawn) [Example 58, 4-ethyl-6-(imidazo[1,2-s]pyridin-5-yl)-2,2,4-trimethyl-2,3,4,7,8,9-hexahydro-1H-cyclopenta[h]quinolin-3-one], under setting [1], the IC50 came to 37 nM.

`CC#CCC1(C)C(=O)C(C)(C)Nc2c1cc(-c1cccc3nccn13)c1c2CCC1` (stereo not drawn) [Example 63, 4-(2-butynyl)-6-(imidazo[1,2-a]pyridin-5-yl)-2,2,4-trimethyl-2,3,4,7,8,9-hexahydro-1H-cyclopenta[h]quinolin-3-one]: the IC50 under setting [1] amounted to 48 nM.

As for `Cc1noc(C)c1-c1cc2c(c3c1OCO3)NC(C)(C)C(=O)C2(C)C` [Example 69, 4-(3,5-dimethylisoxazol-4-yl)-6,6,8,8-tetramethyl-6,7,8,9-tetrahydro-[1,3]dioxolo[4,5-h]quinolin-7-one], the half-inhibitory concentration (IC50) under setting [1] amounted to 77 nM.

Turning to `CC1(C)Nc2c(cc(-c3cccc4nccn34)c3c2OCO3)C(C)(C)C1=O` [Example 71, 4-(imidazo[1,2-a]pyridin-5-yl)-6,6,8,8-tetramethyl-6,7,8,9-tetrahydro-[1,3]dioxolo[4,5-h]quinolin-7-one], the half-maximal inhibitory concentration (IC50) under setting [1] came out at 59 nM.

For `CC1(C)Nc2c(cc(-c3cccc4ncccc34)c3c2OCO3)C(C)(C)C1=O` [Example 72, 6,6,8,8-tetramethyl-4-(quinolin-5-yl)-6,7,8,9-tetrahydro-[1,3]dioxolo[4,5-h]quinolin-7-one], the half-inhibitory concentration (IC50) under setting [1] was found to be 40 nM.

Take `C=CCC1(C)C(=O)C(C)(C)Nc2c1cc(-c1cccc3cc[nH]c13)c1c2OCO1` (stereo not drawn) [Example 78, 6-allyl-4-(1H-indol-7-yl)-6,8,8-trimethyl-6,7,8,9-tetrahydro-[1,3]dioxolo[4,5-h]quinolin-7-one]: the IC50 worked out at 94 nM.

Take `CC1(C)Nc2c(cc(-c3cccc4nccn34)c3c2OC(F)(F)O3)C(C)(C)C1=O` [Example 82, 2,2-difluoro-4-(imidazo[1,2-a]pyridin-5-yl)-6,6,8,8-tetramethyl-6,7,8,9-tetrahydro-[1,3]dioxolo[4,5-h]quinolin-7-one]: the half-inhibitory concentration (IC50) under setting [1] turned out to be 111 nM.

`Cc1noc(C)c1-c1cc2c(c3c1OCC3)NC(C)(C)C(=O)C2(C)C` [Example 84, 6-(3,5-dimethylisoxazol-4-yl)-2,2,4,4-tetramethyl-1,2,3,4,8,9-hexahydro-furo[2,3-h]quinolin-3-one]: the IC50 under setting [1] was 49 nM.

On to `CC1(C)Nc2c(cc(-c3cccc4nccn34)c3c2CCO3)C(C)(C)C1=O` [Example 88, 6-(imidazo[1,2-a]pyridin-5-yl)-2,2,4,4-tetramethyl-1,2,3,4,8,9-hexahydro-furo[2,3-h]quinolin-3-one], for which the IC50 under setting [1] stood at 66 nM.

For the compound `CC1(C)Nc2c(cc(-c3ccnc4ncccc34)c3c2CCO3)C(C)(C)C1=O` [Example 92, 2,2,4,4-tetramethyl-6-([1,8]naphthyridin-4-yl)-1,2,3,4,8,9-hexahydro-furo[2,3-h]quinolin-3-one], under setting [1], the IC50 was found to be 73 nM.

Consider `Cc1onc(CO)c1-c1cc2c(c3ccoc13)NC(C)(C)C(=O)C2(C)C` [Example 94, 6-(3-hydroxymethyl-5-methylisoxazol-4-yl)-2,2,4,4-tetramethyl-1,2,3,4-tetrahydro-furo[2,3-h]quinolin-3-one], for which the IC50 under setting [1] was 66 nM.

In the case of `CC1(C)Nc2c(cc(-c3cccc4nccn34)c3occc23)C(C)(C)C1=O` [Example 98, 6-(imidazo[1,2-a]pyridin-5-yl)-2,2,4,4-tetramethyl-1,2,3,4-tetrahydro-furo[2,3-h]quinolin-3-one], the half-inhibitory concentration (IC50) under setting [1] amounted to 31 nM.

As to `CC1(C)Nc2c(cc(-c3cncc4nccn34)c3occc23)C(C)(C)C1=O` [Example 100, 6-(imidazo[1,2-a]pyrazin-5-yl)-2,2,4,4-tetramethyl-1,2,3,4-tetrahydro-furo[2,3-h]quinolin-3-one], the IC50 under setting [1] is 47 nM.

These data come from patent US8367695B2, “Condensed tetrahydroquinoline derivative and use thereof for medical purposes” (Mitsubishi Tanabe Pharma Corporation, priority 2007, dated 2013).
